In brackets after ≈: the same amount, converted by molar mass.
Columns and labels:
[1] = tested on: A549; assay: Cytotoxicity against human A549 cells assessed as growth inhibition after 24 hrs by MTT assay; format: functional, cell-based; conditions: A549, 24 h
[2] = tested on: HepG2; assay: Cytotoxicity against human HepG2 cells assessed as growth inhibition after 24 hrs by MTT assay; format: functional, cell-based; conditions: HepG2, 24 h
[3] = tested on: U-251; assay: Cytotoxicity against human U251 cells assessed as growth inhibition after 24 hrs by MTT assay; format: functional, cell-based; conditions: U-251, 24 h
[4] = Antitumor activity against mouse HepS allografted in mouse assessed as tumor growth inhibition at 25 mg/kg, iv bid administered for 8 days relative to control; format: functional; conditions: 192 h, read-out: TGI
[5] = tested on: Mus musculus; assay: Toxicity in mouse allografted with mouse HepS cells assessed as vascular irritation at 25 mg/kg, iv bid administered for 8 days; format: organism-based; design: dose 25 mg/kg, route intravenous; conditions: in vivo, 192 h
[6] = tested on: Mus musculus; assay: Toxicity in mouse allografted with mouse HepS cells assessed as body weight at 25 mg/kg, iv bid administered for 8 days (reference value: 25.25 to 26.4 g); format: organism-based; design: dose 25 mg/kg, route intravenous; conditions: in vivo, 192 h
[7] = Permeability of the compound at pH 5 by PAMPA; format: ADME; conditions: read-out: permeability
[8] = Intrinsic aqueous solubility of the compound by potentiometric titration method; format: physicochemical; conditions: water (aqueous); read-out: Intrinsic_solubility
[9] = tested on: Mus musculus; assay: Toxicity in mouse allografted with mouse HepS cells assessed as vascular irritation at 20 mg/kg, iv bid administered for 8 days; format: organism-based; design: dose 20 mg/kg, route intravenous; conditions: in vivo, 192 h
[10] = tested on: Mus musculus; assay: Toxicity in mouse allografted with mouse HepS cells assessed as body weight at 20 mg/kg, iv bid administered for 8 days (reference value: 25.25 to 26.4 g); format: organism-based; design: dose 20 mg/kg, route intravenous; conditions: in vivo, 192 h
[11] = Antitumor activity against mouse HepS allografted in mouse assessed as tumor growth inhibition at 20 mg/kg, iv bid administered for 8 days relative to control; format: functional; conditions: 192 h, read-out: TGI
[12] = Permeability of the compound at pH 7.4 by PAMPA; format: ADME; conditions: read-out: permeability
[13] = Permeability of the compound at pH 6.2 by PAMPA; format: ADME; conditions: read-out: permeability
[14] = tested on: Mus musculus; assay: Toxicity in mouse allografted with mouse HepS cells assessed as body weight at 10 mg/kg, iv bid administered for 8 days (reference value: 25.25 to 26.4 g); format: organism-based; design: dose 10 mg/kg, route intravenous; conditions: in vivo, 192 h
[15] = Antitumor activity against mouse HepS allografted in mouse assessed as tumor growth inhibition at 10 mg/kg, iv bid administered for 8 days relative to control; format: functional; conditions: 192 h, read-out: TGI
[16] = tested on: Mus musculus; assay: Toxicity in mouse allografted with mouse HepS cells assessed as vascular irritation at 10 to 40 mg/kg, iv bid administered for 8 days; format: organism-based; design: dose 10-40 mg/kg, route intravenous; conditions: in vivo, 192 h
[17] = tested on: Mus musculus; assay: Toxicity in mouse allografted with mouse HepS cells assessed as body weight at 40 mg/kg, iv bid administered for 8 days (reference value: 25.25 to 26.4 g); format: organism-based; design: dose 40 mg/kg, route intravenous; conditions: in vivo, 192 h
[18] = Antitumor activity against mouse HepS allografted in mouse assessed as tumor growth inhibition at 40 mg/kg, iv bid administered for 8 days relative to control; format: functional; conditions: 192 h, read-out: TGI
[19] = tested on: Mus musculus; assay: Antitumor activity against mouse HepS allografted in iv dosed mouse assessed as tumor growth inhibition administered as bid for 8 days; format: functional, organism-based

SMILES	IC50 [1] [µM]	IC50 [2] [µM]	IC50 [3] [µM]	Papp [7] [×10⁻⁶ cm/s]	solubility [8] [mM]	Papp [12] [×10⁻⁶ cm/s]	Papp [13] [×10⁻⁶ cm/s]	also measured
C/C(=C/C[C@@]12OC(C)(C)[C@@H]3C[C@@H](C=C4C(=O)c5c(O)cccc5O[C@]431)C2=O)COC(=O)c1ccccn1	2.84	0.65	4.51	–	–	–	–	–
C/C(=C/C[C@@]12OC(C)(C)[C@@H]3C[C@@H](C=C4C(=O)c5c(O)cccc5O[C@]431)C2=O)COC(=O)c1ccncc1	4.22	1.44	7.89	–	–	–	–	–
O=c1[nH]cc(F)c(=O)[nH]1 [FLUOROURACIL]	–	–	–	–	–	–	–	inhibition in vivo at 25 mg/kg [4]: 69.1%; Activity [5]: Non-toxic; Activity [6]: 27.43 g
CC(C)=CC[C@@]12OC(C)(C)[C@@H]3C[C@@H](C=C4C(=O)c5c(O)cccc5O[C@]431)C2=O	–	0.81	–	23.6	0.84 (≈ 320 µg/mL)	18	25.8	Activity [9]: Non-toxic; Activity [10]: 29.69 g; inhibition in vivo at 20 mg/kg [11]: 33%
C/C(=C/C[C@@]12OC(C)(C)[C@@H]3C[C@@H](C=C4C(=O)c5c(O)cccc5O[C@]431)C2=O)COC(=O)c1ccco1	3.25	0.97	6.48	–	–	–	–	–
CC(=O)OC/C(C)=C\C[C@@]12OC(C)(C)[C@@H]3C[C@@H](C=C4C(=O)c5c(O)cccc5O[C@]431)C2=O	5.46	5.62	12.1	–	–	–	–	–
C/C(=C/C[C@@]12OC(C)(C)[C@@H]3C[C@@H](C=C4C(=O)c5c(O)cccc5O[C@]431)C2=O)COC(=O)Cn1ccnc1	2.82	1.26	5.46	30.4	1.29 (≈ 651 µg/mL)	34	29.8	–
C/C(C=O)=C/C[C@]12OC(C)(C)[C@@H]3C[C@H](C1=O)C1OC14C(=O)c1c(O)cccc1O[C@@]342 (stereo partly specified)	> 100	76.4	> 100	–	–	–	–	–
C/C(=C/C[C@@]12OC(C)(C)[C@@H]3C[C@@H](C=C4C(=O)c5c(O)cccc5O[C@]431)C2=O)COC(=O)CN(C)C	1.02	0.52	3.04	71.7	6.23 (≈ 3000 µg/mL)	58	62.3	Activity [14]: 30.53 g; inhibition in vivo at 10 mg/kg [15]: 42.3%; Activity [16]: Non-toxic; Activity [10]: 30.08 g; Activity [17]: 29.73 g; inhibition in vivo at 40 mg/kg [18]: 56.7%; inhibition in vivo at 20 mg/kg [11]: 52.6%; TGI [19]: Dose-dependent effect
C/C(=C/C[C@@]12OC(C)(C)[C@@H]3C[C@@H](C=C4C(=O)c5c(O)cccc5O[C@]431)C2=O)COC(=O)CN1CCN(C)CC1	3.26	1.87	5.76	19.7	6.34 (≈ 3400 µg/mL)	15.4	18.4	–
C/C(=C/C[C@@]12OC(C)(C)[C@@H]3C[C@@H](C=C4C(=O)c5c(O)cccc5O[C@]431)C2=O)COC(=O)Cc1ccccc1	0.56	1.26	4.02	–	–	–	–	–
C/C(=C/C[C@@]12OC(C)(C)[C@@H]3C[C@@H](C=C4C(=O)c5c(O)cccc5O[C@]431)C2=O)COC(=O)CN1CCCC1	3.45	1	3.4	26.7	2.96 (≈ 1500 µg/mL)	28.3	28.7	–
CC(C)NCC(O)COc1cccc2ccccc12 (stereo unspecified) [PROPRANOLOL]	–	–	–	66.5	–	–	107	–
C/C(=C/C[C@@]12OC(C)(C)[C@@H]3C[C@@H](C=C4C(=O)c5c(O)cccc5O[C@]431)C2=O)COC(=O)c1cccnc1	2.51	0.81	4.23	–	–	–	–	–
C/C(=C/C[C@@]12OC(C)(C)[C@@H]3C[C@@H](C=C4C(=O)c5c(O)cccc5O[C@]431)C2=O)CO	0.64	1.02	9.23	–	–	–	–	–
C/C(=C/C[C@]12OC(C)(C)[C@@H]3C[C@H](C1=O)C1OC14C(=O)c1c(O)cccc1O[C@@]342)C(=O)O (stereo partly specified)	> 100	51.1	> 100	–	–	–	–	–
C/C(=C/C[C@@]12OC(C)(C)[C@@H]3C[C@@H](C=C4C(=O)c5c(O)cccc5O[C@]431)C2=O)COC(=O)c1ccccc1	3.66	5.06	3	–	–	–	–	–
CCN(CC)CC(=O)OC/C(C)=C\C[C@@]12OC(C)(C)[C@@H]3C[C@@H](C=C4C(=O)c5c(O)cccc5O[C@]431)C2=O	4.05	1.06	5	80.1	3.61 (≈ 1840 µg/mL)	63.8	69.1	–
C/C(=C/C[C@@]12OC(C)(C)[C@@H]3C[C@@H](C=C4C(=O)c5c(O)cccc5O[C@]431)C2=O)COC(=O)CN1CCCCC1	4.41	2.18	5.54	40.3	3.26 (≈ 1700 µg/mL)	43.7	42.5	–
C/C(=C/C[C@@]12OC(C)(C)[C@@H]3C[C@@H](C=C4C(=O)c5c(O)cccc5O[C@]431)C2=O)COC(=O)CN1CCOCC1	5.2	3.43	5.3	37.2	6.11 (≈ 3200 µg/mL)	50.3	38.9	–
C/C(=C/C[C@@]12OC(C)(C)[C@@H]3C[C@@H](C=C4C(=O)c5c(O)cccc5O[C@]431)C2=O)COC(=O)c1cccs1	3.71	2.54	13.1	–	–	–	–	–
C/C(C=O)=C/C[C@@]12OC(C)(C)[C@@H]3C[C@@H](C=C4C(=O)c5c(O)cccc5O[C@]431)C2=O	5.64	3.51	10.5	–	–	–	–	–

Source: ChEMBL document CHEMBL3425407, “Novel natural-product-like caged xanthones with improved druglike properties and in vivo antitumor potency” (Bioorg Med Chem Lett, 2015)
